# Measured values from US10882859B2, “Kinase inhibitors” (Topivert Pharma Limited, priority 2015, dated 2021).
# Like-named read-outs stand apart in the source and are kept apart here.
# Tests used:
# JAK1 = JAK1 (Homo sapiens (Human), UniProt P23458); test: KINOMEscan enzyme binding assay (DiscoveRx), JAK1; conditions: read-out: Dissociation Constant JAK1
# Experimental: (§1) These assays may be conducted by DiscoveRx (formerly Ambit; San Diego, Calif.). The percentage inhibition produced by incubation with a test compound may be calculated relative to the non-inhibited control.
# [1] = Systemic pharmacokinetics and total colon tissue distribution after single oral administration; assay type: in vivo, male C57BL/6 mice; conditions: mice, oral 10 mg/kg; for concentration at 0.5 h / concentration at 1 h / concentration at 2 h / concentration at 4 h / concentration at 6 h / concentration at 8 h / concentration at 12 h / concentration at 24 h: male, C57BL/6, mouse
# Experimental: Studies were conducted by Sai Life Sciences (Hinjewadi, Pune, India) to investigate the systemic pharmacokinetics and total colon tissue distribution of compounds of the invention following a single oral administration in male C57BL/6 mice.
# A group of twenty four male mice were administered with a solution of test compound formulated at a dose of 10 mg/10 mL/kg in aqueous hydroxypropyl-β-cyclodextrin (20% w/v in water). Blood samples ([…]) were collected from retro-orbital plexus of each mouse under light isoflurane anaesthesia such that the samples were obtained at 0.5, 1, 2, 4, 6, 8, 12 and 24 hr. The blood samples were collected from a set of three mice at each time point in a labeled micro centrifuge tube containing K2EDTA as anticoagulant. Plasma samples were separated by centrifugation at 4000 rpm for 10 min and stored below −70° C. until bioanalysis. After collection of blood sample, animals were humanely euthanized by carbon dioxide asphyxiation to collect total colon tissues. The colons were flushed with cold PBS (pH7.4) to remove contents. The total colon tissues were homogenized with cold PBS (pH7.4) of twice the weight of colon tissue and stored below −70° C. Total volume was three times the total colon tissue weights. All samples were processed for analysis by protein precipitation using acetonitrile and analyzed with a fit-for-purpose LC-MS/MS method. Pharmacokinetic parameters were calculated using the non-compartmental analysis tool of Phoenix WinNonlin® (Version 6.3).
# [2] = test system: CD3/IL2 stimulated PBMC cells; test: IFNγ release from CD3/IL2 stimulated PBMC cells; assay type: cell-based; conditions: Homo sapiens, CD3/IL2 stimulation, 48 h, ELISA
# TYK2 = TYK2 (Homo sapiens (Human), UniProt P29597); test: KINOMEscan enzyme binding assay (DiscoveRx), TYK2; conditions: read-out: Dissociation Constant TYK2
# TYK2, sequence (P29597 whole entry): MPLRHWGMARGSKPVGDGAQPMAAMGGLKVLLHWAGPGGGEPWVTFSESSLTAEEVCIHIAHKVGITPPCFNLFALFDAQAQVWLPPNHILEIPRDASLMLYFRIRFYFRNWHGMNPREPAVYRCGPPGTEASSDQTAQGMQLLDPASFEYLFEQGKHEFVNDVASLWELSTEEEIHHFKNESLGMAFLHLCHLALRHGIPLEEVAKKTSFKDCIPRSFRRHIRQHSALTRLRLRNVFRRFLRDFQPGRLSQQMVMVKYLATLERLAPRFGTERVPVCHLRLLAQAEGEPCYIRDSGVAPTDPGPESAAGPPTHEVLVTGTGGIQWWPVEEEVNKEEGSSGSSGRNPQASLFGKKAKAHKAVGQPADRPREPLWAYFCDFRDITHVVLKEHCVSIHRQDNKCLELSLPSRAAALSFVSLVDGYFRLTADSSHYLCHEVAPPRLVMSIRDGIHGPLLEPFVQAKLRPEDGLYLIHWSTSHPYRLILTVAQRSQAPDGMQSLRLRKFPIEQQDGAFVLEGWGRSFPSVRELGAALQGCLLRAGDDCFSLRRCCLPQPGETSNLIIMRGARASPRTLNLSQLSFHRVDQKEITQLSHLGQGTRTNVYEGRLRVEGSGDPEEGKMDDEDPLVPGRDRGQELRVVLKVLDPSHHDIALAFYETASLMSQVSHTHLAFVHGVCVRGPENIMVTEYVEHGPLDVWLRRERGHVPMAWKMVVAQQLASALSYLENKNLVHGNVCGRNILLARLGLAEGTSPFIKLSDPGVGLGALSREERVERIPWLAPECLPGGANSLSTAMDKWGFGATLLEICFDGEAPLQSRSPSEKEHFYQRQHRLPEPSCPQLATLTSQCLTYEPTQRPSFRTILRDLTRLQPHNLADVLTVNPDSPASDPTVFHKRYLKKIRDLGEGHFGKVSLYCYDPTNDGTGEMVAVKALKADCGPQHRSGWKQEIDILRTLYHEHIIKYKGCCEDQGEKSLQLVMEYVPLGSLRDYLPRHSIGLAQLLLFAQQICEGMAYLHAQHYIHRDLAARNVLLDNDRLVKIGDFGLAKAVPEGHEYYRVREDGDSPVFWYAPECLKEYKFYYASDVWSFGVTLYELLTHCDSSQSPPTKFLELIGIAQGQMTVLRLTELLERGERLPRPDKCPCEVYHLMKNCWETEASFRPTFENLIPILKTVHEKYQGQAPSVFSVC
# Experimental: as §1
# JAK2 = JAK2 (Homo sapiens (Human), UniProt O60674); test: KINOMEscan enzyme binding assay (DiscoveRx), JAK2; conditions: read-out: Dissociation Constant JAK2
# JAK2, sequence (O60674 whole entry): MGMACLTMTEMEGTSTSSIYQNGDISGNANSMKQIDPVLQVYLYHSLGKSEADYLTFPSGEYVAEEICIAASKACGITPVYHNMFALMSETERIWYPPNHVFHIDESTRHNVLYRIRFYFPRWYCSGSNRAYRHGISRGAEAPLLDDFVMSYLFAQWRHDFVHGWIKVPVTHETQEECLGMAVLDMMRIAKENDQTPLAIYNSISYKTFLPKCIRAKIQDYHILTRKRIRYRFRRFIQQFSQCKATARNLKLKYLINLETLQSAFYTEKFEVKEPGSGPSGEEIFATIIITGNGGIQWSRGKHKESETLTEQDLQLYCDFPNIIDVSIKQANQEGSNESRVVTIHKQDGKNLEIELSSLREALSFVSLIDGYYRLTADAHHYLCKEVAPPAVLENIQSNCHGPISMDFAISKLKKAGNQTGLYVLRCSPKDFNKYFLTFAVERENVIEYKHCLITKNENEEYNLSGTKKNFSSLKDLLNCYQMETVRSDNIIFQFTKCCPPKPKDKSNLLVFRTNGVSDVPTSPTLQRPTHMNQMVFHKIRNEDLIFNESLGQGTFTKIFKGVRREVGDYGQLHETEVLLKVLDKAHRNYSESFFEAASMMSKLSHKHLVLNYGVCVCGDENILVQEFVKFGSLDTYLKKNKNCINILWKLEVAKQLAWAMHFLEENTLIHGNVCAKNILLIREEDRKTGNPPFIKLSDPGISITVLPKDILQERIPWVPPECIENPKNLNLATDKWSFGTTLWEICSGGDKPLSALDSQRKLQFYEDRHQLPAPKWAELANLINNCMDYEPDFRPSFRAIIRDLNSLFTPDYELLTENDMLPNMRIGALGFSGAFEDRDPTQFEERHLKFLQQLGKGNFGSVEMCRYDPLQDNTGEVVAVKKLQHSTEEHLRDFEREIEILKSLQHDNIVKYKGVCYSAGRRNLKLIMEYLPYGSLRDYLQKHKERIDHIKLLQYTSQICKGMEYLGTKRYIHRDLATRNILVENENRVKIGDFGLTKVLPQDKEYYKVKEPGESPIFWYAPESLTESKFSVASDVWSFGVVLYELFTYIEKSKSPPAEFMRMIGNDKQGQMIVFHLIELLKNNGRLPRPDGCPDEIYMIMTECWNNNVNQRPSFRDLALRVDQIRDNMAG
# Experimental: as §1
# JAK3 = JAK3 (Homo sapiens (Human), UniProt P52333); test: KINOMEscan enzyme binding assay (DiscoveRx), JAK3; conditions: read-out: Dissociation Constant JAK3
# JAK3, sequence (P52333 whole entry): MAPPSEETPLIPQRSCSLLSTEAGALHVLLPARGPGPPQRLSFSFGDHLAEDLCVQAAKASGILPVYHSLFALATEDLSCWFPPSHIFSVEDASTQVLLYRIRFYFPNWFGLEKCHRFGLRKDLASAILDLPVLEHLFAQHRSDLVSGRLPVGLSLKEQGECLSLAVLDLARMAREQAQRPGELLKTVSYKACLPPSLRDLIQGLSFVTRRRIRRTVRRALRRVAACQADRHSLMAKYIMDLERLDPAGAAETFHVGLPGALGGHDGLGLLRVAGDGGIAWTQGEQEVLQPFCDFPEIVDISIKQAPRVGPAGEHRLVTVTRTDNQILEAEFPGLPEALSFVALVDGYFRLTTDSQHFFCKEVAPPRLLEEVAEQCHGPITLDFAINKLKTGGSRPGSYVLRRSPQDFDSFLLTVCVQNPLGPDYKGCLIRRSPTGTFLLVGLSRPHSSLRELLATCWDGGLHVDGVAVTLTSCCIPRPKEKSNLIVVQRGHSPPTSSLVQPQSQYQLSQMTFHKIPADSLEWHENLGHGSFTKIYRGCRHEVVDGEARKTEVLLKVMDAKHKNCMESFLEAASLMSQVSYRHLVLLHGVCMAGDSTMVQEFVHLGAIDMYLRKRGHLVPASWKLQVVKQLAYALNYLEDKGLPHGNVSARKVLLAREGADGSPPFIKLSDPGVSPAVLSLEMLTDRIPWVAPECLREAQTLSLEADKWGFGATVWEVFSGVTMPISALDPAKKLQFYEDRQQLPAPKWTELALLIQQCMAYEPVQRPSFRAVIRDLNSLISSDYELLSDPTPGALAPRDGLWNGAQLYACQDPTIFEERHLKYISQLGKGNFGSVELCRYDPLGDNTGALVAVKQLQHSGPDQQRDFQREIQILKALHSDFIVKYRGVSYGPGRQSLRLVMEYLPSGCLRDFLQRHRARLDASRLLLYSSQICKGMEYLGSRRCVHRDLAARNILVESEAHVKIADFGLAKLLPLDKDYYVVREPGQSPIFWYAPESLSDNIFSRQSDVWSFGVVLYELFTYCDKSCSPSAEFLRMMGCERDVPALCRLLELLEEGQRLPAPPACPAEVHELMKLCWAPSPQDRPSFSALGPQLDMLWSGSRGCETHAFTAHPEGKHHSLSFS
# Experimental: as §1
# [3] = Solubility in fasted-state simulated colonic fluid (FaSSCoF); assay type: physicochemical; conditions: 25 °C, pH 6.5, fassgf or other biorelevant, thermodynamic from solid, pH 6.5, 25° C.
# Experimental: The solubilities of compounds of the invention in FaSSCoF at pH 6.5 are determined using a modification of a previously-reported procedure (Vertzoni, M., et al. Pharm. Res. 2010, 27, 2187-2196). In place of the bile salt extract employed in the original procedure (which extract is no longer available), the modified procedure uses a mixture of sodium taurochlorate (0.15 g), glycocholic acid (0.15 g), ursodeoxycholic acid (0.05 g), cholic acid (0.05 g), and glycodeoxycholic acid (0.05 g). These five bile acids are ground together with a mortar and pestle to produce a fine white powder that is incorporated into the FaSSCoF, as outlined below.
# FaSSCoF medium: Tris(hydroxymethyl)aminomethane (Tris; 0.275 g) and maleic acid (0.44 g) are dissolved in water (35 mL) to give a solution whose pH is adjusted to 6.5 by treatment with 0.5M NaOH (ca. 12 mL). The solution is then made up to 50 mL with water. A portion of this Tris/maleate buffer solution (ca. 25 mL) is added to a 0.5 L round-bottomed flask, before being treated with 0.00565 g of the bile acid mixture described above. Solutions of phosphatidylcholine (0.0111 g) in DCM (0.15 mL) and palmitic acid (0.0013 g) in DCM (0.15 mL) are added, then the organic solvent is evaporated off under reduced pressure at 40° C. until a clear solution, with no perceptible DCM odour, is achieved. The volume of the evaporated solution is adjusted to 50 mL by addition of the remainder of Tris/maleate buffer, then BSA (0.115 g) is added, before being dissolved by gentle agitation.
# Solubility Determination: Test compounds are suspended in the pH 6.5 FaSSCoF medium to give a maximum final concentration of 2-10 mg/mL. The suspensions are equilibrated at 25° C. for 24 h, before being filtered through a glass fibre C filter. The filtrates are then diluted as appropriate for injection and quantification by HPLC with reference to a standard. Different volumes of the standard, diluted and undiluted sample solutions are injected and the solubilities are calculated using the peak areas determined by integration of the peak found at the same retention time as the principal peak in the standard injection.
# Jurkat cells = test: Cell cytotoxicity assay (propidium iodide, flow cytometry); assay type: cell-based, human; conditions: 24 h
# Experimental: 1×10^5 Jurkat cells (immortalised human T lymphocytes) are added to the appropriate number of wells of a 96 well plate in 100 μL of media (RPMI supplemented with 10% foetal bovine serum). 1 μL of DMSO control (final concentration 1.0% v/v) or test compound (final concentration 20, 5 or 1 μg/mL) is added to the wells and incubated at 37° C., 5% CO2. After 24 hours, the plate is centrifuged at 1200 rpm for 3 minutes and the supernatant discarded. Cells are then resuspended in 150 μL (final concentration 7.5 μg/mL) of propidium iodide (PI) in PBS and incubated at 37° C., 5% CO2 for 15 minutes. After 15 minutes, cells are analysed by flow cytometry (BD accuri) using the FL3 window. The % viability is calculated as the % of cells that are PI negative in the test wells normalised to the DMSO control.
# [4] = total colon tissue, total colon, read-out: Mean total colon level
# [5] = plasma, read-out: Mean plasma concentration
# JAK1, sequence (P23458 whole entry): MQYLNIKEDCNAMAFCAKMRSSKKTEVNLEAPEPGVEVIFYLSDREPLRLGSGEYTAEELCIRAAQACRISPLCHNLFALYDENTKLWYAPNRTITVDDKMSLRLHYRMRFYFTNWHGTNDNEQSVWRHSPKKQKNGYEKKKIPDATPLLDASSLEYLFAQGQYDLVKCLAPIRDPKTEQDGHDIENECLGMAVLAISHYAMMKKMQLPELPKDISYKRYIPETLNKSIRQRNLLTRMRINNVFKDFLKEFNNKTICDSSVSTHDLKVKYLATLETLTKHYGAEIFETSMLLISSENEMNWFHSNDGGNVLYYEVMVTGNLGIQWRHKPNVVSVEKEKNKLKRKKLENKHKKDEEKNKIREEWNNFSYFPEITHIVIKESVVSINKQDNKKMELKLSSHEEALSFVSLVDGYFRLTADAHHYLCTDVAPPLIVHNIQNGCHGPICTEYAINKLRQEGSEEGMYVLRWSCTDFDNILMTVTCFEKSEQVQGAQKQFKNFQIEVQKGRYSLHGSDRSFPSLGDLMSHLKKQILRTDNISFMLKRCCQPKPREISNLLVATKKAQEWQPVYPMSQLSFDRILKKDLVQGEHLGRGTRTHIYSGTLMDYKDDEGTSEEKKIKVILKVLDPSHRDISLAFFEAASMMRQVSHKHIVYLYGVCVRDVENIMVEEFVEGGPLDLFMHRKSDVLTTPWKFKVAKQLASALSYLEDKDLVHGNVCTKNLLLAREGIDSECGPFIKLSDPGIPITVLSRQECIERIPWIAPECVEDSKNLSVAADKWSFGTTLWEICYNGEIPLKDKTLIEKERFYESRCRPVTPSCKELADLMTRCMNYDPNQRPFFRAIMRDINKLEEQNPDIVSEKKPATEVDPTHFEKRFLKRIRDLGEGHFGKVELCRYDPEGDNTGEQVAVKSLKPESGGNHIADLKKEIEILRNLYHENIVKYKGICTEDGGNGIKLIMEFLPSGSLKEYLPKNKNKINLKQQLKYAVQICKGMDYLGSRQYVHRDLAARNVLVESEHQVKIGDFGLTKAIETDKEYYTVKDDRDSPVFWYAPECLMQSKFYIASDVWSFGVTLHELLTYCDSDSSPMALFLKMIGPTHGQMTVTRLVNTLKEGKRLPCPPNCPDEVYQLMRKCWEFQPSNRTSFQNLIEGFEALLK
compound,measurement,setting,value
"CCc1cc(O)c(F)cc1-c1ccc2c(-c3nc4c([nH]3)CCN(C(=O)N3CCOCC3)C4)n[nH]c2c1 [Example 1, (2-(6-(2-Ethyl-5-fluoro-4-hydroxyphenyl)-1H-indazol-3-yl)-1,4,6,7-tetrahydro-5H-imidazo[4,5-c]pyridin-5-yl)(morpholino)methanone]",Kd,JAK1,0.62 nM
same,concentration at 0.5 h,[1]; [4],327 ng/g
same,concentration at 1 h,[1]; [4],984 ng/g
same,concentration at 2 h,[1]; [4],19700 ng/g
same,concentration at 4 h,[1]; [4],4690 ng/g
same,concentration at 6 h,[1]; [4],8440 ng/g
same,concentration at 8 h,[1]; [4],11900 ng/g
same,concentration at 12 h,[1]; [4],4790 ng/g
same,concentration at 24 h,[1]; [4],350 ng/g
same,concentration at 0.5 h,[1]; [5],6.1 ng/mL
same,concentration at 1 h,[1]; [5],1.8 ng/mL
same,concentration at 2 h,[1]; [5],1.9 ng/mL
same,concentration at 4 h,[1]; [5],0 ng/mL
same,concentration at 6 h,[1]; [5],0 ng/mL
same,concentration at 8 h,[1]; [5],0 ng/mL
same,concentration at 12 h,[1]; [5],0 ng/mL
same,concentration at 24 h,[1]; [5],0 ng/mL
same,Systemic plasma exposure,[1]; plasma,very low
same,Colonic exposure AUC0-24 h,[1]; total colon,"132,979 h·ng/g"
same,IC50,[2],3.6 nM
same,Kd,TYK2,0.11 nM
same,Kd,JAK2,0.052 nM
same,Kd,JAK3,0.098 nM
same,solubility thermodynamic at 24 h,"[3]; Run 1, read-out: pH 6.5 FaSSCoF Solubility, Run 1",40 µg/mL
same,solubility thermodynamic at 24 h,"[3]; Run 2, read-out: pH 6.5 FaSSCoF Solubility, Run 2",20 µg/mL
same,% viability at 1 μg/mL,Jurkat cells,40%
